In article PMC11760092, “Pretreatment with serine protease inhibitors impairs Leishmania amazonensis survival on macrophages” (Parasites & Vectors, 2025):
Read-outs that look alike come from different tables or passages of the source.

Columns and labels:
[1] = Cytotoxicity assay (MTT); type: cell-based, BALB/c mice; details: BALB/c, mouse
Protocol: To determinate the toxicity of the inhibitors on mammalian cells, peritoneal macrophages from BALB/c mice, obtained by peritoneal lavage, in concentration of 2 × 10^6 macrophages/mL, were adhered in 96-well culture plates overnight at 37 °C with 5% CO2. The inhibitors were then added in different concentrations and incubated for 72 h at 37 °C and 5% CO2. Cell viability was also assessed by the MTT method. Cytotoxic concentration of 50% of macrophages (CC50) values were calculated using GraPadPrism 8 software. Three independent experiments in triplicate were performed.

[2] = test system: Leishmania amazonensis-WT promastigotes; test: Antipromastigote assay (MTT); type: cell-based; details: 72 h of incubation; interval in brackets; read-out: Antileishmanial effect in Leishmania amazonensis IC50 Promastigote
Protocol: Leishmania amazonensis–WT promastigotes, in the logarithmic phase of growth, were transferred to 96-well culture plates (final concentration 2 × 10^6 cells/mL) and exposed to different concentrations of inhbitors during 72 h at 25 °C. The cell viability was evaluated by the 3-(4,5-dimethylthiazol-2-yl)-2,5 diphenyltetrazolium bromide (MTT) method (obtained from Sigma-Aldrich). The inhibitory concentration of 50% of parasite growth (IC50) values were calculated using GraphPad Prism 8 software […]. Three independent experiments in triplicate were performed. Amphotericin B (Cristália, São Paulo, SP, Brazil) was used as a reference drug.

[3] = test system: L. amazonensis (RFP) amastigotes; test: Antiamastigote assay (RFP fluorescence, infected peritoneal macrophages); type: cell-based; details: Leishmania amazonensis, Peritoneal macrophage; 72 h of incubation; interval in brackets; read-out: Antileishmanial effect in Leishmania amazonensis IC50 Amastigote
Protocol: Peritoneal macrophages from BALB/c mice were obtained by peritoneal lavage and distributed in 24-well plates at 2 × 10^6 cells/mL in RPMI medium (Cultilab) containing 10% FBS and a 0.5% penicillin and streptomycin solution (complete RPMI). The plates were incubated for 1 h at 37 °C and 5% CO2, washed with phosphate-buffered saline (PBS), and then reincubated in complete RPMI medium overnight. The cells were washed again with PBS and infected with stationary growth phase L. amazonensis (RFP) promastigotes at a 10:1 ratio for 4 h at 33 °C. The plates were washed with PBS and the inhibitors were added at different concentrations and incubated for 72 h. After this time, each well was scraped to remove attached cells and the reading was taken with a spectrofluorimeter (FLx800, BioTek Instruments, Winooski, VT, USA) at 530 nm and 590 nm of excitation and emission, respectively. […] All assays were performed in triplicate and repeated three times. Results were calculated as the percentage of amastigote survival compared with the nontreated control group, and IC50 values were determined using GraphPad Prism 8 software.

[4] = test system: L. donovani promastigotes; design: method as in PMID 26040107; details: cited from earlier work; for cell viability of L. donovani promastigotes: aprotinin 1 µM, benzamidine 1 mM, after 5 h, 10 h, 15 h and 20 h of incubation
[5] = test system: L. donovani serine proteases; design: method as in PMID 26040107; details: cited from earlier work
[6] = test system: L. donovani in RAW 264.7 cells; design: method as in PMID 26040107; details: promastigotes pretreated 2 h; cited from earlier work
[7] = test system: L. amazonensis in peritoneal macrophages; test: Promastigote pretreatment and infection of peritoneal macrophages; type: cell-based, Leishmania amazonensis; details: for entry of promastigotes into macrophages: promastigotes pretreated 1 h, 0 h after 4 h interaction; for conversion of promastigotes into amastigotes: pretreated parasites (PF-429242 3.2 µM, TPCK 30 µM); for number of intracellular amastigotes (Giemsa, Supplementary Fig. 1): pretreatment with PF-429242 3.2 µM or TPCK 30 µM
Protocol: (§1) Leishmania amazonensis-RFP promastigotes were pretreated with different concentrations of inhbitors during 1 h at 25 °C. The cells were washed with PBS and used to infect peritoneal macrophages from BALB/c mice (10:1 ratio), not pretreated or pretreated with 0.5 ng/mL IFN-γ overnight, in 24-well plates. After 4 h of interaction, the plates were washed with PBS and (1) scraped to remove attached cells and read using a spectrofluorimeter (time = 0 h) or (2) incubated at 33 °C with 5% CO2 for 24 h, 48 h, and 72 h for later scraping and reading (times = 24 h, 48 h, and 72 h). Three experiments were performed, each one with three replicates.
The same experiment was repeated, but using 13 mm glass coverslips in 24-well plates. The fixation with ethanol and staining with Giemsa were performed. Subsequently, the slides were examined in an optical microscope (Olympus BX53, Shinjuku, Tokyo, Japan) and photographed (Olympus DP73, Shinjuku, Tokyo, Japan).

[8] = test system: L. amazonensis promastigotes; design: method as in PMID 17726617; details: 24 h, cited from earlier work
[9] = test system: Leishmania amazonensis-RFP promastigotes; test: Viability of promastigotes after 1 h of treatment with inhibitors; type: cell-based; details: 1 h treatment, washed; for viability of promastigotes after 1 h of treatment, compared with the control: 0 h, 24 h, 48 h and 72 h of incubation
Protocol: Leishmania amazonensis-RFP promastigotes were treated with different concentrations of inhibitors during 1 h at 25 °C and were washed with PBS. Then, these cells had their viability determined by fluorescence analysis using a spectrofluorimeter (time = 0 h) and were also reincubated in complete RPMI medium for subsequent analysis of cell viability after 24 h, 48 h, and 72 h (times = 24 h, 48 h, and 72 h) by fluorescence analysis.

[10] = test system: L. amazonensis serine proteases; test: Enzymatic assay on promastigote lysate with substrate ABZ-V-F-R-S-L-K-Q EDDnp; type: biochemical, Leishmania amazonensis; details: first 10 min; for enzymatic activity of L. amazonensis serine proteases: 2.5 µM inhibitor
Protocol: The enzymatic assay was conducted in a final volume of 200 µL per well, containing 1 µM of substrate, supernatant of lysate of 3.7 × 10^6 parasites, 2.5 µM of inhibitors (PF-429242 and TPCK) or 3 µM of E-64 in Tris-buffered pH 8. Substrate ABZ-V-F-R-S-L-K-Q EDDnp was used, which was provided by Dr. Luiz Juliano Neto from the Department of Biophysics of UNIFESP-EPM and is described in Alves, L.C. et al.. The lysate was prepared with promastigotes in stationary phase of growth, washed three times with PBS pH 7.2, and in the last wash it was resuspended in Tris-buffered pH 8 with 1% NP40. The parasites were submitted to five rapid freeze–thaw cycles in liquid nitrogen. The lysate was centrifuged at 20,000g for 10 min at […]. The supernatant was stored at −20 °C until use. The read was carried out using the spectrofluorimeter SoftMax M3 with excitation/emission of 320/420 nm.

[11] = test system: peritoneal macrophages from BALB/c mice; design: method as in PMID 35678670, PMID 33584607, PMID 35890269; details: 72 h of incubation; previously published data (*); cited from earlier work
[12] = test system: Leishmania amazonensis-WT promastigotes; design: method as in PMID 35678670, PMID 33584607, PMID 35890269; details: 72 h of incubation; previously published data (*); read-out: Antileishmanial effect in Leishmania amazonensis IC50 Promastigote; cited from earlier work
[13] = test system: L. amazonensis (RFP) amastigotes; design: method as in PMID 35678670, PMID 33584607, PMID 35890269; details: 72 h of incubation; previously published data (*); read-out: Antileishmanial effect in Leishmania amazonensis IC50 Amastigote; cited from earlier work
[14] = test system: NO production by host macrophages; test: Determination of nitric oxide (NO) levels (Griess method); type: cell-based, BALB/c mice; details: supernatant of macrophages infected with promastigotes pretreated for 1 h
Protocol: Supernatant from cultures of L. amazonensis-infected macrophages, in which promastigotes were pretreated or not with PF-429242 or TPCK, was collected, and NO levels were determined by the Griess method. NO levels were determined in aliquots of 50 µL of the supernatant, to which 50 µL of the Griess reagent were added (Griess Reagent: 1% sulfanilamide in 2.5% of H3PO4 + 0.1% N-1-diidrocloride naftiletilenodiamine in 2.5% H3PO4), in a 96-well microplate. Nitrite content was quantified by comparison with a sodium nitrite standard curve. The absorbance was measured at 540 nm using a spectrophotometer (Multiskan EX, Thermo Electron Corporation, Vantaa, Finland). The assays were carried out in duplicate and three independent experiments were realized. Macrophages prestimulated with 0.5 ng/mL IFN-γ overnight and infected with L. amazonensis promastigotes without pretreatment were used as positive controls.

[15] = test system: L. amazonensis in peritoneal macrophages prestimulated with IFN-γ; test: Promastigote pretreatment and infection of macrophages prestimulated with IFN-γ; type: cell-based, Leishmania amazonensis; details: macrophages prestimulated with 0.5 ng/mL IFN-γ overnight; promastigotes pretreated 1 h
Protocol: as §1

[16] = test system: L. amazonensis promastigotes and amastigotes; details: cited from earlier work
[17] = test system: L. amazonensis; details: mice infected with L. amazonensis; cited from earlier work

Compound | IC50 [2] [µM] | cell viability of L. donovani promastigotes [4] | intracellular survival of the parasites (ranking of inhibitors) [6] | entry of promastigotes into macrophages [7] | viability of promastigotes after 1 h of treatment, compared with the control [9] | enzymatic activity of L. amazonensis serine proteases [10] | CC50 [11] [µM] | IC50 [12] [µM] | conversion of promastigotes into amastigotes [7] | number of intracellular amastigotes (Giemsa, Supplementary Fig. 1) ([7]; 48 h and 72 h after infection) | IC50 [13] [µM] | NO production versus control group [14] | intracellular survival of L. amazonensis [15] | further results
C[C@@H]1[C@H](O)[C@@H](C)/C=C/C=C/C=C/C=C/C=C/C=C/C=C/[C@H](O[C@@H]2O[C@H](C)[C@@H](O)[C@H](N)[C@@H]2O)C[C@@H]2O[C@](O)(C[C@@H](O)C[C@@H](O)[C@H](O)CC[C@@H](O)C[C@@H](O)CC(=O)O[C@H]1C)C[C@H](O)[C@H]2C(=O)O [AMB, Amphotericin B] | 0.12 |  |  |  |  |  |  |  |  |  |  |  |  | CC50 at 72 h ([1]; peritoneal macrophages, 72 h of incubation, MTT, interval in brackets, read-out: Peritoneal macrophages CC50): 21.8 µM
N=C(N)c1ccccc1 [Benzamidine, benzamidine] | > 200 | reduced the cell viability | most reduced the intracellular survival | did not change the entry | did not change the viability |  |  |  |  |  |  |  |  | IC50 [3]: > 200 µM; CC50 at 72 h [1]: 240 µM; inhibition of the proteolytic activity ([5]; 1 mM): 72%; permanence and survival of amastigotes within host cells ([7]; promastigotes pretreated 1 h with 200 µM or 6.25 µM, up to 72 h): did not alter the permanence and survival; viability of L. amazonensis promastigotes ([8]; 1 mM, 48 h and 72 h of treatment): reduced the viability
CC(C)C[C@H](NC(=O)[C@H]1O[C@@H]1C(=O)O)C(=O)NCCCCN=C(N)N [E-64] |  |  |  |  |  |  |  |  |  |  |  |  |  | enzymatic activity on serine protease substrate ([10]; 3 µM): no impact on the activity
Cc1ccc(S(=O)(=O)N[C@@H](Cc2ccccc2)C(=O)CCl)cc1 [TPCK, N-p-tosyl-L-phenylalanine chloromethyl ketone] |  |  |  | did not alter the entry | not able to change cell viability | able to inhibit the enzymatic activity | 139 | 14.6 | no difficulty was observed in conversion | reduction in the number of amastigotes | 14.2 | no difference in NO production | impairs the intracellular survival | cell viability of L. donovani promastigotes (reduction) ([4]; concentration not given): only did so after 15 h and 20 h; inhibition of the proteolytic activity ([5]; concentration not given): 52%; survival of parasites within macrophages compared with the negative control ([7]; promastigotes pretreated 1 h with 30 µM or 15 µM, 24 h and 48 h after infection): reduced survival; survival of parasites within macrophages compared with the negative control ([7]; promastigotes pretreated 1 h with 30 µM, 15 µM or 7.5 µM, 72 h after infection): reduced survival; viability of L. amazonensis promastigotes ([8]; 100 µM, after 4 h, 48 h and 72 h of incubation): reducing cell viability; growth of promastigotes and intracellular amastigotes ([16]; L. amazonensis): growth inhibition of promastigotes and intracellular amastigotes; lesion size and parasite load [17]: reduction in lesion size and parasite load; viability of promastigotes after 1 h of treatment ([9]; 30 µM, after 72 h of incubation): slight reduction in the viability
PF-429242 |  |  |  | did not alter the entry | not able to change cell viability | able to inhibit the enzymatic activity | 189 | 0.83 | no difficulty was observed in conversion | reduction in the number of amastigotes | 120 | no difference in NO production | impairs the intracellular survival | survival of parasites within macrophages compared with the control ([7]; promastigotes pretreated 1 h with 3.2 µM, 1.6 µM or 0.8 µM, 48 h and 72 h after infection): reduced survival; growth of promastigotes ([16]; different strains of L. amazonensis): inhibition of the growth of promastigotes
aprotinin |  | reduced the cell viability | most reduced the intracellular survival |  |  |  |  |  |  |  |  |  |  | inhibition of the proteolytic activity ([5]; 1 µM): 100%
